Experimental data as given in US9518052B2, “Pyrazolopyridines and pyrazolopyrimidines” (Pfizer Inc., priority 2014, dated 2016).

Key:
Assay type in all cases: biochemical
Conditions in all cases: Caliper assay at 1 mM ATP
JAK1 = JAK1 (Homo sapiens (Human), UniProt P23458); experiment: JAK Caliper Enzyme Assay at 1 mM ATP (JAK1)
TYK2 = TYK2 (Homo sapiens (Human), UniProt P29597); experiment: JAK Caliper Enzyme Assay at 1 mM ATP (TYK2)
JAK3 = JAK3 (Homo sapiens (Human), UniProt P52333); experiment: JAK Caliper Enzyme Assay at 1 mM ATP (JAK3)
JAK2 = JAK2 (Homo sapiens (Human), UniProt O60674); experiment: JAK Caliper Enzyme Assay at 1 mM ATP (JAK2)
Sequence of JAK2 (O60674 whole entry, species assumed): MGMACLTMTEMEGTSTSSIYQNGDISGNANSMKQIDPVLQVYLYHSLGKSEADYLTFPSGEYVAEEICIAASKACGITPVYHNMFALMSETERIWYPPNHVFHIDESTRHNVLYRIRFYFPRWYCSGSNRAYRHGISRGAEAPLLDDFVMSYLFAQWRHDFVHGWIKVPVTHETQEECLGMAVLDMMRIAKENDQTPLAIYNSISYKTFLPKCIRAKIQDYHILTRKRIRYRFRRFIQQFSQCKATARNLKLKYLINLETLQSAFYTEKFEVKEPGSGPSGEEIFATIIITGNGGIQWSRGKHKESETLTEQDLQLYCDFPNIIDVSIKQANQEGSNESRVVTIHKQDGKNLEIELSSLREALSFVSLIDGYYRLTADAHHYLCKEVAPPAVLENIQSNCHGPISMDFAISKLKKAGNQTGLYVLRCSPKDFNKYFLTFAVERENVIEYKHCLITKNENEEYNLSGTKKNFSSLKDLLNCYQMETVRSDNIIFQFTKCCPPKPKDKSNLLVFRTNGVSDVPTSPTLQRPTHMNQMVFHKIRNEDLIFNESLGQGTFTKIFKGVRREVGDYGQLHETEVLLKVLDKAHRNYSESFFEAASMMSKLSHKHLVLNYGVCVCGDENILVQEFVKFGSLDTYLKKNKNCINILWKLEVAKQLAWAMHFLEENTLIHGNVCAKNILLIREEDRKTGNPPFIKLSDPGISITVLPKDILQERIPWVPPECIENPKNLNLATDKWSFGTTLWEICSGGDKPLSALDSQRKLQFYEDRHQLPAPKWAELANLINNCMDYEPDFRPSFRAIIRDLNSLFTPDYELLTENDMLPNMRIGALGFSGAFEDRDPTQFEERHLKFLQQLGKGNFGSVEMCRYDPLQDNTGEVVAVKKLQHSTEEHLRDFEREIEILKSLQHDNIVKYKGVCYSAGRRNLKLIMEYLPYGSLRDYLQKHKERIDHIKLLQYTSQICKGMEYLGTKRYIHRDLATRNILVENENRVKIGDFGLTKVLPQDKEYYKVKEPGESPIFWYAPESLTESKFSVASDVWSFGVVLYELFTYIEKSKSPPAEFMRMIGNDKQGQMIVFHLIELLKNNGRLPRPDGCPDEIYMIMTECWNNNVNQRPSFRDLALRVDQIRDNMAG

Sequence of JAK3 (P52333 whole entry, species assumed): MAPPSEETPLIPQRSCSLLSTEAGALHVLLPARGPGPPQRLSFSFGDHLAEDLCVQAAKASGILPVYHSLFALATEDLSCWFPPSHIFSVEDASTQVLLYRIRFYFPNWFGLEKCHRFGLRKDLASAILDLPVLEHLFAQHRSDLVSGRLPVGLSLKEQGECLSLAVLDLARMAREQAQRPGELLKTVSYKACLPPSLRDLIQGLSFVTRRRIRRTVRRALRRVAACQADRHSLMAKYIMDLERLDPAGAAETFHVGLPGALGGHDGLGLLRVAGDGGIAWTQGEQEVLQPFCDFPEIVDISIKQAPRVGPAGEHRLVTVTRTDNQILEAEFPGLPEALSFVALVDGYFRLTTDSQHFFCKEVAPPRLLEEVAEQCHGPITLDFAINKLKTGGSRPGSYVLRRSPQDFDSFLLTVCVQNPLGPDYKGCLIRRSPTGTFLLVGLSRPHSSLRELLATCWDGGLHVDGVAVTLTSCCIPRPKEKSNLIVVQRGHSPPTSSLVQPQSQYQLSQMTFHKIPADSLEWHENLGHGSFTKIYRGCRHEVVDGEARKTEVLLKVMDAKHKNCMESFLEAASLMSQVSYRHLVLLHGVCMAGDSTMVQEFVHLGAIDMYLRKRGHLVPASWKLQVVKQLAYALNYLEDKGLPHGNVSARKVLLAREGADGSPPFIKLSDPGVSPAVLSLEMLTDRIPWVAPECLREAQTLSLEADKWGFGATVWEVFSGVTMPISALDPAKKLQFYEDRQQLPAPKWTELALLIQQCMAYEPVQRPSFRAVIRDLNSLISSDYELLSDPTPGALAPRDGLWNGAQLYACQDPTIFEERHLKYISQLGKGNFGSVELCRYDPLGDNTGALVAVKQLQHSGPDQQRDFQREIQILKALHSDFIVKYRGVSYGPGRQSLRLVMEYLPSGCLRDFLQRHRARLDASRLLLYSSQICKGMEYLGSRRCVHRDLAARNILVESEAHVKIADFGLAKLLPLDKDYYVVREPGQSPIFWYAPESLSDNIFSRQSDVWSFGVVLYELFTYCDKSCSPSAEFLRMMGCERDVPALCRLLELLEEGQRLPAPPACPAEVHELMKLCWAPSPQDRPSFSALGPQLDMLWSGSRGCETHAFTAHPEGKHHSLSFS
Sequence of JAK1 (P23458 whole entry, species assumed): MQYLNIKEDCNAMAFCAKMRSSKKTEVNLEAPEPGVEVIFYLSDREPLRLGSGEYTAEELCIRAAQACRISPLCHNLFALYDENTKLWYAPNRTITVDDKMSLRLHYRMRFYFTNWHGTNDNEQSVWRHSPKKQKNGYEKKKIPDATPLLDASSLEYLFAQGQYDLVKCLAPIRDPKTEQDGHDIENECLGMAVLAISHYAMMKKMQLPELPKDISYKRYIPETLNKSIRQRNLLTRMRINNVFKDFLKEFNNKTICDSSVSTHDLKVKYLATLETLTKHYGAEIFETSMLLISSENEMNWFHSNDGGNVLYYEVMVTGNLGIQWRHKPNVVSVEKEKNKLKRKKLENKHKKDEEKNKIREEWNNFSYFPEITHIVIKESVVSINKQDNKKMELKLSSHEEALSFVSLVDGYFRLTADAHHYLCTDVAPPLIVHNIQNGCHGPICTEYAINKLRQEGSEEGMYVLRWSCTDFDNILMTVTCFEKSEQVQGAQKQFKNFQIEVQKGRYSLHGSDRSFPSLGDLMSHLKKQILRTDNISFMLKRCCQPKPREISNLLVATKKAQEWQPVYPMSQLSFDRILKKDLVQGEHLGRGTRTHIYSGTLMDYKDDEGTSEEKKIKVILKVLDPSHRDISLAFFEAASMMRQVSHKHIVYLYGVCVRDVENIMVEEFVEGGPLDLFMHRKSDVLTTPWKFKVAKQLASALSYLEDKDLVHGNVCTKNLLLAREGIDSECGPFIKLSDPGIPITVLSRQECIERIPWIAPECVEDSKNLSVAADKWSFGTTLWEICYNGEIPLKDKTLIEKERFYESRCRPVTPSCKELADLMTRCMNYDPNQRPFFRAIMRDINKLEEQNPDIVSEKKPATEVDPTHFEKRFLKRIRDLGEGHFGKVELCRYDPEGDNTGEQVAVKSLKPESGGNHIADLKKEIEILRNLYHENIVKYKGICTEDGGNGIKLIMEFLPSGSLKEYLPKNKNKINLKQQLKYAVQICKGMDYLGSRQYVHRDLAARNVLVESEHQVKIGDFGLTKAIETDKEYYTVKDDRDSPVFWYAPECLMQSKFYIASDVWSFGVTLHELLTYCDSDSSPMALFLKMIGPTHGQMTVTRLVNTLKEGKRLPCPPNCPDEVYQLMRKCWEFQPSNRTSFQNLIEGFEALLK
Sequence of TYK2 (P29597 whole entry, species assumed): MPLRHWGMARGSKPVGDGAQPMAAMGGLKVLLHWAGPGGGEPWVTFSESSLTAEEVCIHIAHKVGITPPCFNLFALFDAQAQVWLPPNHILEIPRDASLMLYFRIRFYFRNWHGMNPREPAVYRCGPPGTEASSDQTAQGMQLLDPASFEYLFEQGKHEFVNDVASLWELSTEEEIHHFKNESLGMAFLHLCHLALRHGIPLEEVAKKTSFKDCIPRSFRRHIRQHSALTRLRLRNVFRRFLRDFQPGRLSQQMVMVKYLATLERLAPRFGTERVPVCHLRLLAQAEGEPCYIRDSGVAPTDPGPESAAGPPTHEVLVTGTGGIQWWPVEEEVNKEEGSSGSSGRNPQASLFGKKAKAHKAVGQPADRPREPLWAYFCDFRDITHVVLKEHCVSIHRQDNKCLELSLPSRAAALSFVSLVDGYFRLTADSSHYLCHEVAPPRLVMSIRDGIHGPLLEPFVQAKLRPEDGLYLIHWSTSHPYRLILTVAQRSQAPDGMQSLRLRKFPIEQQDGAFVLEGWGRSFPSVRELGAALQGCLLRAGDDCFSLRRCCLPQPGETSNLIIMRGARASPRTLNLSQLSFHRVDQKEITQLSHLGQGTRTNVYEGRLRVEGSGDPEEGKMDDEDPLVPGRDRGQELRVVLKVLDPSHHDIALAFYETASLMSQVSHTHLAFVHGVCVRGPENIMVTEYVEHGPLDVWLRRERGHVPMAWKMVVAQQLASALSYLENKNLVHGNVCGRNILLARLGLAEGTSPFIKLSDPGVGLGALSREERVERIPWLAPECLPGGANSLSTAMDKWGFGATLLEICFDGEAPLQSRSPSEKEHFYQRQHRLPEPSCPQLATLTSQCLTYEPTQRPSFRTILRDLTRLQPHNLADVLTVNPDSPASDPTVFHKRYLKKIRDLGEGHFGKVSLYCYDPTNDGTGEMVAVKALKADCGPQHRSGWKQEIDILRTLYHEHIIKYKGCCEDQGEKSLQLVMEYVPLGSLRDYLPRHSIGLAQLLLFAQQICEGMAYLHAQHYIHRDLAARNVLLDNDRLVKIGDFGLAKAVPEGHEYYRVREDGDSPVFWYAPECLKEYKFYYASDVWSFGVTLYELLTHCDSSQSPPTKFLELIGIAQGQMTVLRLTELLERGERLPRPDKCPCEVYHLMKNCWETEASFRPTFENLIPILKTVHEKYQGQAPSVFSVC

| Structure (SMILES) | IC50 (JAK1) | IC50 (TYK2) | IC50 (JAK3) | IC50 (JAK2) |
| --- | --- | --- | --- | --- |
| CCc1cc(O)c(F)cc1-c1cc2[nH]nc(C(=O)Nc3ccc(C)nc3)c2c(NCc2ccccc2N(C)S(C)(=O)=O)n1 [Example 56, 6-(2-ethyl-5-fluoro-4-hydroxy-phenyl)-4-({2-[methyl(methylsulfonyl)amino]benzyl}amino)-N-(6-methylpyridin-3-yl)-1H-pyrazolo[4,3-c]pyridine-3-carboxamide] | 6.6 nM | 19.9 nM | 135 nM | 26.1 nM |
| CNC(=O)c1n[nH]c2cc(-c3cc(F)c(O)cc3CC(F)(F)F)nc(NCc3ccccc3N(C)S(=O)(=O)c3cn[nH]c3)c12 [Example 58, 6-(5-fluoro-4-hydroxy-2-(2,2,2-trifluoroethyl)phenyl)-N-methyl-4-((2-(N-methyl-1H-pyrazole-4-sulfonamido)benzyl)amino)-1H-pyrazolo[4,3-c]pyridine-3-carboxamide] | 10.3 nM | 67.5 nM | 236 nM | 54.4 nM |
| CNC(=O)c1n[nH]c2cc(-c3cc(F)c(O)cc3CC(F)(F)F)nc(NCc3ccccc3N(C)S(=O)(=O)CCOC)c12 [Example 60, 6-[5-fluoro-4-hydroxy-2-(2,2,2-trifluoroethyl)phenyl]-4-[(2-{[(2-methoxyethyl)sulfonyl](methyl)amino}benzyl)amino]-N-methyl-1H-pyrazolo[4,3-c]pyridine-3-carboxamide] | 6.6 nM | 56.5 nM | 115 nM | 29.2 nM |
| CN(c1ccccc1CNc1nc(-c2cc(F)c(O)cc2CC(F)(F)F)cc2[nH]nc(C(N)=O)c12)S(=O)(=O)c1cccnc1 [Example 61, 6-[5-fluoro-4-hydroxy-2-(2,2,2-trifluoroethyl)phenyl]-4-({2-[methyl(pyridin-3-ylsulfonyl)amino]benzyl}amino)-1H-pyrazolo[4,3-c]pyridine-3-carboxamide] | 7.3 nM | 52.3 nM | 110 nM | 30.2 nM |
| CCN(c1ncccc1CNc1nc(-c2cc(F)c(O)cc2CC(F)(F)F)cc2[nH]nc(C(=O)NC)c12)S(C)(=O)=O [Example 63, 4-[({2-[ethyl(methylsulfonyl)amino]pyridin-3-yl}methyl)amino]-6-[5-fluoro-4-hydroxy-2-(2,2,2-trifluoroethyl)phenyl]-N-methyl-1H-pyrazolo[4,3-c]pyridine-3-carboxamide] | 5 nM | 107 nM | 82.1 nM | 22.5 nM |
| CN(c1ccccc1CNc1nc(-c2cc(F)c(O)cc2CC(F)(F)F)cc2[nH]nc(C(N)=O)c12)S(=O)(=O)c1ccc(N2CCOCC2)nc1 [Example 65, 6-[5-fluoro-4-hydroxy-2-(2,2,2-trifluoroethyl)phenyl]-4-{[2-(methyl{[6-(morpholin-4-yl)pyridin-3-yl]sulfonyl}amino)benzyl]amino}-1H-pyrazolo[4,3-c]pyridine-3-carboxamide] | 23.3 nM | 126 nM | 283 nM | 83.8 nM |
| CNC(=O)c1n[nH]c2cc(-c3cc(F)c(O)cc3CC(F)(F)F)nc(NCc3cc(C)cnc3N(C)S(C)(=O)=O)c12 [Example 67, 6-[5-fluoro-4-hydroxy-2-(2,2,2-trifluoroethyl)phenyl]-N-methyl-4-[({5-methyl-2-[methyl(methylsulfonyl)amino]pyridin-3-yl}methyl)amino]-1H-pyrazolo[4,3-c]pyridine-3-carboxamide] | 16.3 nM | 2030 nM | 72.8 nM | 48.2 nM |
| CNC(=O)c1n[nH]c2cc(-c3cc(F)c(O)cc3CC(F)(F)F)nc(NCc3ccccc3N(C)S(=O)(=O)c3cccnc3)c12 [Example 68, 6-[5-fluoro-4-hydroxy-2-(2,2,2-trifluoroethyl)phenyl]-N-methyl-4-({2-[methyl(pyridin-3-ylsulfonyl)amino]-benzyl}amino)-1H-pyrazolo[4,3-c]pyridine-3-carboxamide] | 14.2 nM | 72.3 nM | 253 nM | 72.7 nM |
| CNC(=O)c1n[nH]c2cc(-c3cc(F)c(O)cc3CC(F)(F)F)nc(NCc3ccccc3N(C)S(=O)(=O)c3ccc(C)nc3)c12 [Example 69, 6-[5-fluoro-4-hydroxy-2-(2,2,2-trifluoroethyl)phenyl]-N-methyl-4-[(2-{methyl[(6-methylpyridin-3-yl)sulfonyl]amino}benzyl)amino]-1H-pyrazolo[4,3-c]pyridine-3-carboxamide] | 16.2 nM | 66.8 nM | 257 nM | 63.7 nM |
| Cc1ccc(S(=O)(=O)N(C)c2ccccc2CNc2nc(-c3cc(F)c(O)cc3CC(F)(F)F)cc3[nH]nc(C(N)=O)c23)cn1 [Example 70, 6-[5-fluoro-4-hydroxy-2-(2,2,2-trifluoroethyl)phenyl]-4-[(2-{methyl[(6-methylpyridin-3-yl)sulfonyl]amino}benzyl)amino]-1H-pyrazolo[4,3-c]pyridine-3-carboxamide] | 12 nM | 79.4 nM | 208 nM | 52.4 nM |
| CCN(c1ncc(Cl)cc1CNc1nc(-c2cc(F)c(O)cc2CC(F)(F)F)cc2[nH]nc(C(N)=O)c12)S(C)(=O)=O [Example 71, 4-[({5-chloro-2-[ethyl(methylsulfonyl)amino]pyridin-3-yl}methyl)amino]-6-[5-fluoro-4-hydroxy-2-(2,2,2-trifluoroethyl)phenyl]-1H-pyrazolo[4,3-c]pyridine-3-carboxamide] | 44.1 nM | 2750 nM | 359 nM | 156 nM |
| CN(c1ncc(Cl)cc1CNc1nc(-c2cc(F)c(O)cc2CC(F)(F)F)cc2[nH]nc(C(N)=O)c12)S(C)(=O)=O [Example 72, 4-[({5-chloro-2-[methyl(methylsulfonyl)amino]pyridin-3-yl}methyl)amino]-6-[5-fluoro-4-hydroxy-2-(2,2,2-trifluoroethyl)phenyl]-1H-pyrazolo[4,3-c]pyridine-3-carboxamide] | 44.8 nM | 3450 nM | 198 nM | 135 nM |
| CCc1cc(O)c(F)cc1-c1cc2[nH]nc(C(=O)NC)c2c(NCc2ccccc2N(C)S(N)(=O)=O)n1 [Example 73, 6-(2-ethyl-5-fluoro-4-hydroxyphenyl)-N-methyl-4-({2-[methyl(sulfamoyl)-amino]benzyl}amino)-1H-pyrazolo[4,3-c]pyridine-3-carboxamide] | 5.4 nM | 33.9 nM | 80.9 nM | 18.8 nM |
| Cc1ccc(NC(=O)c2n[nH]c3cc(-c4cc(F)c(O)cc4CC(F)(F)F)nc(NCc4ccccc4N(C)S(C)(=O)=O)c23)cn1 [Example 76, 6-[5-Fluoro-4-hydroxy-2-(2,2,2-trifluoroethyl)phenyl]-4-({2-[methyl(methylsulfonyl)amino]-benzyl}amino)-N-(6-methylpyridin-3-yl)-1H-pyrazolo[4,3-c]pyridine-3-carboxamide] | 29.6 nM | 316 nM | 475 nM | 113 nM |

These reach a lower IC50 (JAK1). Values come first.

| IC50 (JAK1) | IC50 (TYK2) | IC50 (JAK3) | IC50 (JAK2) | Structure (SMILES) |
| --- | --- | --- | --- | --- |
| 3.5 nM | 226 nM | 66.9 nM | 20.8 nM | CNC(=O)c1n[nH]c2cc(-c3cc(F)c(O)cc3CC(F)(F)F)nc(NCc3nccnc3N(C)S(C)(=O)=O)c12 [Example 51, 6-[5-fluoro-4-hydroxy-2-(2,2,2-trifluoroethyl)phenyl]-N-methyl-4-[({3-[methyl(methylsulfonyl)amino]pyrazin-2-yl}methyl)amino]-1H-pyrazolo[4,3-c]pyridine-3-carboxamide] |
| 2.9 nM | 109 nM | 46.3 nM | 15 nM | CCN(c1ncccc1CNc1nc(-c2cc(F)c(O)cc2CC(F)(F)F)cc2[nH]nc(C(N)=O)c12)S(C)(=O)=O [Example 52, 4-[({2-[ethyl(methyl-sulfonyl)-amino]pyridin-3-yl}methyl)amino]-6-[5-fluoro-4-hydroxy-2-(2,2,2-trifluoroethyl)phenyl]-1H-pyrazolo[4,3-c]pyridine-3-carboxamide] |
| 2.1 nM | 45.9 nM | 54 nM | 13.7 nM | CNC(=O)c1n[nH]c2cc(-c3cc(F)c(O)cc3CC(F)(F)F)nc(NCc3ncccc3N(C)S(C)(=O)=O)c12 [Example 55, 6-[5-Fluoro-4-hydroxy-2-(2,2,2-trifluoroethyl)phenyl]-N-methyl-4-[({3-[methyl(methylsulfonyl)amino]pyridin-2-yl}methyl)amino]-1H-pyrazolo[4,3-c]pyridine-3-carboxamide] |
| 2.9 nM | 278 nM | 39.5 nM | 14.4 nM | CN(c1ncccc1CNc1nc(-c2cc(F)c(O)cc2CC(F)(F)F)cc2[nH]nc(C(N)=O)c12)S(C)(=O)=O [Example 62, 6-[5-fluoro-4-hydroxy-2-(2,2,2-trifluoroethyl)phenyl]-4-[({2-[methyl(methyl-sulfonyl)amino]pyridin-3-yl}methyl)amino]-1H-pyrazolo[4,3-c]pyridine-3-carboxamide] |
| 3.5 nM | 81.3 nM | 60 nM | 14.8 nM | CN(c1ccccc1CNc1nc(-c2cc(F)c(O)cc2CC(F)(F)F)cc2[nH]nc(C(N)=O)c12)S(=O)(=O)CCCN1CCOCC1 [Example 66, 6-[5-fluoro-4-hydroxy-2-(2,2,2-trifluoroethyl)phenyl]-4-{[2-(methyl{[3-(morpholin-4-yl)propyl]sulfonyl}-amino)benzyl]amino}-1H-pyrazolo[4,3-c]pyridine-3-carboxamide] |
| 3.3 nM | 27.1 nM | 63.6 nM | 15.1 nM | CN(c1ccccc1CNc1nc(-c2cc(F)c(O)cc2CC(F)(F)F)cc2[nH]nc(C(N)=O)c12)S(C)(=O)=O [Example 77, 6-[5-Fluoro-4-hydroxy-2-(2,2,2-trifluoroethyl)phenyl]-4-({2-[methyl(methylsulfonyl)amino]benzyl}amino)-1H-pyrazolo[4,3-c]pyridine-3-carboxamide] |
